Like-named read-outs stand apart in the source and are kept apart here.
Assay: in vitro
Assay type: in vitro ADME, human
Experimental: For several compounds only human liver microsomal stability was tested. […] The microsomal assays were carried out with and without the addition of NADPH at a final concentration of 1 mM. For negative control samples, NADPH reagent was not added. […] Note that compounds undergo only Phase I metabolism in liver microsomes.

[1] = human liver microsomes 0.5 mg/mL, with NADPH, compound 0.5 μM, 37° C., read-out: Human Liver Microsomal Stability t1/2
[2] = human liver microsomes 0.5 mg/mL, with NADPH, compound 0.5 μM, read-out: Human Liver Microsomal Stability CLint (uL/min/mg liver) (converted)
[3] = human liver microsomes, no NADPH, compound 0.5 μM

CC(=O)[C@H]1CC[C@H]2[C@@H]3CC[C@H]4C[C@](C)(OC(=O)COC(=O)C(C)(C)OC(=O)CN(C)CCOC(=O)CN)CC[C@]4(C)[C@H]3CC[C@]12C [Compound 241]
half-life (human, microsomes): 3.9 min | microsomal CLint (human, microsomes): 356 µL/min/mg | Human Liver Microsomal Stability no NADPH, % remain 1 h (human, microsomes): 3.68%

CC(=O)[C@H]1CC[C@H]2[C@@H]3CC[C@H]4C[C@](C)(OC(=O)CC(C)(C)C(=O)O)CC[C@]4(C)[C@H]3CC[C@]12C [Compound 420]
Comments: production of GNX (ganaxolone) in human liver microsomes (human liver microsomes): In human no GNX produced | half-life [1]: 445 min | microsomal CLint [2]: 3.11 µL/min/mg | Human Liver Microsomal Stability no NADPH, % remain 1 h [3]: 97.4%

CC(=O)[C@H]1CC[C@H]2[C@@H]3CC[C@H]4C[C@](C)(OC(=O)COC(=O)CNC(=O)[C@@H](N)C(C)C)CC[C@]4(C)[C@H]3CC[C@]12C [Compound 214]
half-life [1]: 161 min | microsomal CLint [2]: 8.6 µL/min/mg | Human Liver Microsomal Stability no NADPH, % remain 1 h [3]: 79.5%

CC(=O)[C@H]1CC[C@H]2[C@@H]3CC[C@H]4C[C@](C)(OC(=O)CCC(=O)O)CC[C@]4(C)[C@H]3CC[C@]12C [Compound 407]
Comments: production of GNX (ganaxolone) in human liver microsomes (human liver microsomes): In human no GNX produced | half-life [1]: 79.8 min | microsomal CLint [2]: 17.4 µL/min/mg | Human Liver Microsomal Stability no NADPH, % remain 1 h [3]: 99%

COCCN(CCO)CC(=O)OC(C)(C)C(=O)OCC(=O)O[C@]1(C)CC[C@@]2(C)[C@@H](CC[C@@H]3[C@@H]2CC[C@]2(C)[C@@H](C(C)=O)CC[C@@H]32)C1 [Compound 235]
half-life [1]: 5.2 min | microsomal CLint [2]: 269 µL/min/mg | Human Liver Microsomal Stability no NADPH, % remain 1 h [3]: 36%

CC(=O)[C@H]1CC[C@H]2[C@@H]3CC[C@H]4C[C@](C)(OC(=O)CNCC(C)(C)N)CC[C@]4(C)[C@H]3CC[C@]12C [Compound 138]
Comments: production of GNX (ganaxolone) in human liver microsomes (human liver microsomes): In human small amount of GNX produced | half-life [1]: 33.2 min | microsomal CLint [2]: 41.8 µL/min/mg | Human Liver Microsomal Stability no NADPH, % remain 1 h [3]: 95.3%

CC(=O)[C@H]1CC[C@H]2[C@@H]3CC[C@H]4C[C@](C)(OC(=O)CSC(=N)N)CC[C@]4(C)[C@H]3CC[C@]12C [Compound 304]
Comments: production of GNX (ganaxolone) in human liver microsomes (human liver microsomes): In human small amount of GNX produced | half-life [1]: 173 min | microsomal CLint [2]: 8.03 µL/min/mg | Human Liver Microsomal Stability no NADPH, % remain 1 h [3]: 83.8%

CC(=O)[C@H]1CC[C@H]2[C@@H]3CC[C@H]4C[C@](C)(OC(=O)COC(=O)C(C)(C)N5CCOCC5)CC[C@]4(C)[C@H]3CC[C@]12C [Compound 213]
Comments: production of GNX (ganaxolone) in human liver microsomes (human liver microsomes): In human small amount of GNX produced | half-life [1]: 27.3 min | microsomal CLint [2]: 50.7 µL/min/mg | Human Liver Microsomal Stability no NADPH, % remain 1 h [3]: 98%

CC(=O)[C@H]1CC[C@H]2[C@@H]3CC[C@H]4C[C@](C)(OC(=O)CN5CCC[C@H]5C(=O)OCc5ccccc5)CC[C@]4(C)[C@H]3CC[C@]12C [Compound 128]
Comments: production of GNX (ganaxolone) in human liver microsomes (human liver microsomes): In human no GNX produced | half-life [1]: 9 min | microsomal CLint [2]: 153 µL/min/mg | Human Liver Microsomal Stability no NADPH, % remain 1 h [3]: 20%

CC(=O)[C@H]1CC[C@H]2[C@@H]3CC[C@H]4C[C@](C)(OC(=O)COC(=O)C(C)(C)OC(=O)CN(C)CCO)CC[C@]4(C)[C@H]3CC[C@]12C [Compound 233]
half-life [1]: 5.3 min | microsomal CLint [2]: 261 µL/min/mg | Human Liver Microsomal Stability no NADPH, % remain 1 h [3]: 5%

CC(=O)[C@H]1CC[C@H]2[C@@H]3CC[C@H]4C[C@](C)(OC(=O)CCN5C(=O)CCC5=O)CC[C@]4(C)[C@H]3CC[C@]12C [Compound 415]
Comments: production of GNX (ganaxolone) in human liver microsomes (human liver microsomes): In human small amount of GNX produced | half-life [1]: 8.2 min | microsomal CLint [2]: 169 µL/min/mg | Human Liver Microsomal Stability no NADPH, % remain 1 h [3]: 99%

CC(=O)[C@H]1CC[C@H]2[C@@H]3CC[C@H]4C[C@](C)(OC(=O)CCC(=O)OCCN(C)C)CC[C@]4(C)[C@H]3CC[C@]12C [Compound 409]
Comments: production of GNX (ganaxolone) in human liver microsomes (human liver microsomes): In human small amount of GNX produced | half-life (human, microsomes): 12.8 min | microsomal CLint (human, microsomes): 108 µL/min/mg | Human Liver Microsomal Stability no NADPH, % remain 1 h (human, microsomes): 7%

CC(=O)COCN(CCO)CC(=O)OC(C)(C)C(=O)OCC(=O)O[C@]1(C)CC[C@@]2(C)[C@@H](CC[C@@H]3[C@@H]2CC[C@]2(C)[C@@H](C(C)=O)CC[C@@H]32)C1 [Compound 230]
half-life [1]: 2.94 min | microsomal CLint [2]: 471 µL/min/mg | Human Liver Microsomal Stability no NADPH, % remain 1 h [3]: 1%

CC(=O)[C@H]1CC[C@H]2[C@@H]3CC[C@H]4C[C@](C)(OC(=O)CNC(C)(C)COC(=O)CN5CCOCC5)CC[C@]4(C)[C@H]3CC[C@]12C [Compound 136]
half-life [1]: 3 min | microsomal CLint [2]: 457 µL/min/mg | Human Liver Microsomal Stability no NADPH, % remain 1 h [3]: 0.5%

CC(=O)[C@H]1CC[C@H]2[C@@H]3CC[C@H]4C[C@](C)(OC(=O)CC[C@H](N)C(=O)O)CC[C@]4(C)[C@H]3CC[C@]12C [Compound 416]
Comments: production of GNX (ganaxolone) in human liver microsomes (human liver microsomes): In human no GNX produced | half-life [1]: 273 min | microsomal CLint [2]: 5.08 µL/min/mg | Human Liver Microsomal Stability no NADPH, % remain 1 h [3]: 99%

CC(=O)[C@H]1CC[C@H]2[C@@H]3CC[C@H]4C[C@](C)(OC(=O)OCCN(C)C)CC[C@]4(C)[C@H]3CC[C@]12C [Compound 419]
Comments: production of GNX (ganaxolone) in human liver microsomes (human liver microsomes): In human small amount of GNX produced | half-life [1]: 39.5 min | microsomal CLint [2]: 35.1 µL/min/mg | Human Liver Microsomal Stability no NADPH, % remain 1 h [3]: 88%

CC(=O)[C@H]1CC[C@H]2[C@@H]3CC[C@H]4C[C@](C)(OC(=O)CCCCN)CC[C@]4(C)[C@H]3CC[C@]12C [Compound 418]
Comments: production of GNX (ganaxolone) in human liver microsomes (human liver microsomes): In human no GNX produced | half-life [1]: 451 min | microsomal CLint [2]: 3.08 µL/min/mg | Human Liver Microsomal Stability no NADPH, % remain 1 h [3]: 99%

CC(=O)[C@H]1CC[C@H]2[C@@H]3CC[C@H]4C[C@](C)(OC(=O)CNC(=O)C(C)(C)O)CC[C@]4(C)[C@H]3CC[C@]12C [Compound 141]
Comments: production of GNX (ganaxolone) in human liver microsomes (human liver microsomes): In human no GNX produced | half-life (human, microsomes): 38.3 min | microsomal CLint (human, microsomes): 36.2 µL/min/mg | Human Liver Microsomal Stability no NADPH, % remain 1 h (human, microsomes): 99.7%

COCCOCCOCC(=O)OCC(=O)O[C@]1(C)CC[C@@]2(C)[C@@H](CC[C@@H]3[C@@H]2CC[C@]2(C)[C@@H](C(C)=O)CC[C@@H]32)C1 [Compound 205]
half-life [1]: 3.58 min | microsomal CLint [2]: 387 µL/min/mg | Human Liver Microsomal Stability no NADPH, % remain 1 h [3]: 5.7%

CCOCCC(=O)OCC(=O)O[C@]1(C)CC[C@@]2(C)[C@@H](CC[C@@H]3[C@@H]2CC[C@]2(C)[C@@H](C(C)=O)CC[C@@H]32)C1 [Compound 203]
half-life [1]: 2.24 min | microsomal CLint [2]: 618 µL/min/mg | Human Liver Microsomal Stability no NADPH, % remain 1 h [3]: 0.79%

CC(=O)[C@H]1CC[C@H]2[C@@H]3CC[C@H]4C[C@](C)(OC(=O)CSCCOC(=O)CN5CCOCC5)CC[C@]4(C)[C@H]3CC[C@]12C [Compound 303]
Comments: production of GNX (ganaxolone) in human liver microsomes (human liver microsomes): In human GNX not produced | half-life [1]: 2.48 min | microsomal CLint [2]: 599 µL/min/mg | Human Liver Microsomal Stability no NADPH, % remain 1 h [3]: 90%

CC(=O)[C@H]1CC[C@H]2[C@@H]3CC[C@H]4C[C@](C)(OC(=O)CSC(C)(C)C(=O)O)CC[C@]4(C)[C@H]3CC[C@]12C [Compound 305]
Comments: production of GNX (ganaxolone) in human liver microsomes (human liver microsomes): In human small amount of GNX produced | half-life [1]: 171 min | microsomal CLint [2]: 8.12 µL/min/mg | Human Liver Microsomal Stability no NADPH, % remain 1 h [3]: 98.8%

CC(=O)[C@H]1CC[C@H]2[C@@H]3CC[C@H]4C[C@](C)(OC(=O)CNC(=O)CNC(=O)[C@@H](N)C(C)C)CC[C@]4(C)[C@H]3CC[C@]12C [Compound 122]
Comments: production of GNX (ganaxolone) in human liver microsomes (human liver microsomes): In human no GNX produced | half-life [1]: 345 min | microsomal CLint [2]: 4.02 µL/min/mg | Human Liver Microsomal Stability no NADPH, % remain 1 h [3]: 99%

COC(=O)C(C)(C)NCC(=O)O[C@]1(C)CC[C@@]2(C)[C@@H](CC[C@@H]3[C@@H]2CC[C@]2(C)[C@@H](C(C)=O)CC[C@@H]32)C1 [Compound 125]
half-life [1]: 3.9 min | microsomal CLint [2]: 354 µL/min/mg | Human Liver Microsomal Stability no NADPH, % remain 1 h [3]: 1%

CC(=O)[C@H]1CC[C@H]2[C@@H]3CC[C@H]4C[C@](C)(OC(=O)COC(=O)CO)CC[C@]4(C)[C@H]3CC[C@]12C [Compound 247]
half-life [1]: 2.01 min | microsomal CLint [2]: 689 µL/min/mg | Human Liver Microsomal Stability no NADPH, % remain 1 h [3]: 1.1%

CC(=O)[C@H]1CC[C@H]2[C@@H]3CC[C@H]4C[C@](C)(OC(=O)CSC(C)(C)C(=O)NCCN(C)C)CC[C@]4(C)[C@H]3CC[C@]12C [Compound 307]
Comments: production of GNX (ganaxolone) in human liver microsomes (human liver microsomes): In human no GNX produced | half-life [1]: 391 min | microsomal CLint [2]: 3.55 µL/min/mg | Human Liver Microsomal Stability no NADPH, % remain 1 h [3]: 99%

CC(=O)[C@H]1CC[C@H]2[C@@H]3CC[C@H]4C[C@](C)(OC(=O)CN(CCO)CCO)CC[C@]4(C)[C@H]3CC[C@]12C [Compound 142]
half-life (human, microsomes): 32.3 min | microsomal CLint (human, microsomes): 42.9 µL/min/mg | Human Liver Microsomal Stability no NADPH, % remain 1 h (human, microsomes): 99%

CC(=O)[C@H]1CC[C@H]2[C@@H]3CC[C@H]4C[C@](C)(OC(=O)COC(=O)OC5CNC5)CC[C@]4(C)[C@H]3CC[C@]12C [Compound 222]
Comments: production of GNX (ganaxolone) in human liver microsomes (human liver microsomes): In human no GNX produced | half-life [1]: 63.7 min | microsomal CLint [2]: 21.8 µL/min/mg | Human Liver Microsomal Stability no NADPH, % remain 1 h [3]: 61%
